{
  "source": "paper PMC4243815",
  "about": "“A non-pediocin low molecular weight antimicrobial peptide produced by Pediococcus pentosaceus strain IE-3 shows increased activity under reducing environment” (BMC Microbiology, 2014)",
  "key": {"[1]": {"test": "Effect of pH on antimicrobial activity of the purified peptide", "type": "physicochemical", "quoted_text": "(§1) The sensitivity of the bacteriocin towards different pH, temperatures and proteases was evaluated using purified bacteriocin. The purified peptide was incubated between pH values 2.0-10.0 and temperatures including 80, 100°C for 30 min and 120°C for 15 min. Antimicrobial peptide (200 μg) was incubated with various proteolytic enzymes such as trypsin (10 μg/ml, Sigma, USA), chymotrypsin (5 μg/ml, Sigma, USA) and proteinase K (5 units, Sigma, USA) in 100 mM Tris HCl buffer pH 8.0 (with 10 mM CaCl2) at 30°C for 6 h to determine their effect. The enzyme activity was terminated by heating the reaction mix at 80°C and subsequently used for antimicrobial activity assay. To test the effect of denaturant like DTT (BioRad, USA) on antimicrobial activity of the peptide, it was incubated with 50 to 150 mM DTT at room temperature for 1 h and used for growth inhibition assay. Hydrogen peroxide induced oxidation was tested by incubating the purified peptide with 100 mM concentration of hydrogen peroxide (Merck, India) for 1 h at room temperature [36] and activity was tested by well diffusion assay."}, "[2]": {"test": "Effect of DTT on antimicrobial activity of the purified peptide", "details": "1 h/RT, growth inhibition assay", "quoted_text": "as §1"}, "trypsin": {"test_system": "trypsin", "test": "Effect of proteolytic enzymes on antimicrobial activity", "details": "200 μg peptide; trypsin 10 μg/ml; 100 mM Tris HCl pH 8.0 with 10 mM CaCl2; 30°C, 6 h; read-out antimicrobial assay", "description": "The sensitivity of the bacteriocin towards different pH, temperatures and proteases was evaluated using purified bacteriocin. The purified peptide was incubated between pH values 2.0-10.0 and temperatures including 80, 100°C for 30 min and 120°C for 15 min. Antimicrobial peptide (200 μg) was incubated with various proteolytic enzymes such as trypsin (10 μg/ml, Sigma, USA), chymotrypsin (5 μg/ml, Sigma, USA) and proteinase K (5 units, Sigma, USA) in 100 mM Tris HCl buffer pH 8.0 (with 10 mM CaCl2) at 30°C for 6 h to determine their effect. The enzyme activity was terminated by heating the reaction mix at 80°C and subsequently used for antimicrobial activity assay. To test the effect of denaturant like DTT (BioRad, USA) on antimicrobial activity of the peptide, it was incubated with 50 to 150 mM DTT at room temperature for 1 h and used for growth inhibition assay. Hydrogen peroxide induced oxidation was tested by incubating the purified peptide with 100 mM concentration of hydrogen peroxide (Merck, India) for 1 h at room temperature and activity was tested by well diffusion assay."}, "proteinase K": {"molecular_target": "T1, proteinase K (Parengyodontium album, UniProt P06873)", "T1 construct": "purchased Sigma, USA", "T1 sequence (P06873 106-384)": "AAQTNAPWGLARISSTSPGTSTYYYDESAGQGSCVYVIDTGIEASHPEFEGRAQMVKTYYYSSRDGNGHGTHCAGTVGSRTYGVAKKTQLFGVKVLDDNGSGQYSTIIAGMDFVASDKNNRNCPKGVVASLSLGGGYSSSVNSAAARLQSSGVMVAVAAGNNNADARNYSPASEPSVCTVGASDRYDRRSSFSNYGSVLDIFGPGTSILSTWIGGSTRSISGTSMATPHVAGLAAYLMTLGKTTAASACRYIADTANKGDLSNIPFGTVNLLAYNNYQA", "test": "Effect of proteolytic enzymes on antimicrobial activity", "details": "200 μg peptide; proteinase K 5 units; 100 mM Tris HCl pH 8.0 with 10 mM CaCl2; 30°C, 6 h; read-out antimicrobial assay", "quoted_text": "as §1"}, "[3]": {"test": "Hydrogen peroxide induced oxidation, activity by well diffusion assay", "type": "physicochemical", "details": "100 mM hydrogen peroxide, 1 h, room temperature", "quoted_text": "as §1"}, "[4]": {"test": "Storage stability of the purified peptide", "type": "physicochemical"}, "M. luteus": {"test_system": "M. luteus", "type": "cell-based, Micrococcus luteus", "details": "16 h", "description": "The MIC was determined for various indicator strains using a microtiter plate dilution assay as described earlier. Cell growth was measured by observing OD at 600 nm at 16 h time interval using microtiter plate reader (Multiskan spectrum, Thermo, USA). The protein concentration was determined by BCA protein concentration estimation kit (Thermo, USA) following instructions of the manufacturer. For MIC determination of DTT treated peptide, the DTT solution was filter sterilized and final 100 mM concentration was used to treat peptide."}, "amylase": {"test_system": "amylase", "test": "Effect of amylase treatment on antimicrobial activity"}, "[5]": {"test_system": "pepsin, trypsin, chymotrypsin, proteinase K and pronase E", "details": "cited from earlier work", "from_the_text": "Bacteria produces different kinds of antimicrobial substances including ribosomally synthesized bacteriocins and non-ribosomally synthesized antibiotics or lipopeptides as a part of their defense strategies in complex environments such as fermented foods and the human gut. Members belonging to the lactic acid bacteria (LAB) family with ability to produce bacteriocins are frequently found in these environments. LAB strains are recognized as GRAS (Generally Regarded As Safe) microorganisms and have been studied in detail for biotechnological applications together with the bacteriocins prod ..."}},
  "note": "Ends that are not written are not given here. Peptide text beside a SMILES is read from it.",
  "data": [
    {"compound": "CC(C)C[C@H](NC(=O)[C@H](Cc1c[nH]cn1)NC(=O)[C@@H](NC(=O)[C@H](CC(C)C)NC(=O)[C@H](CS)NC(=O)CNC(=O)[C@H](CCCNC(=N)N)NC(=O)[C@@H](NC(=O)[C@H](CS)NC(=O)[C@H](CO)NC(=O)[C@H](Cc1ccccc1)NC(=O)[C@@H]1CCCN1C(=O)[C@@H](NC(=O)[C@@H]1CCCN1C(=O)[C@H](C)N)C(C)C)[C@@H](C)O)[C@@H](C)O)C(=O)N[C@H](C(=O)O)C(C)C", "note": "[LMW peptide] (H-APVPFSCTRGCLTHLV-OH; N-terminus and C-terminus assumed)", "values": [
      {"measurement": "Residual activity (%)", "setting": "[1]; pH 2, Overnight/ RT", "result": 100.0, "unit": "%"},
      {"measurement": "Residual activity (%)", "setting": "[1]; pH 3, Overnight/ RT", "result": 100.0, "unit": "%"},
      {"measurement": "Residual activity (%)", "setting": "[1]; pH 4, Overnight/ RT", "result": 100.0, "unit": "%"},
      {"measurement": "Residual activity (%)", "setting": "[1]; pH 5, Overnight/ RT", "result": 100.0, "unit": "%"},
      {"measurement": "Residual activity (%)", "setting": "[1]; pH 6, Overnight/ RT", "result": 87.5, "unit": "%"},
      {"measurement": "Residual activity (%)", "setting": "[1]; pH 7, Overnight/ RT", "result": 75.0, "unit": "%"},
      {"measurement": "Residual activity (%)", "setting": "[1]; pH 8, Overnight/ RT", "result": 37.5, "unit": "%"},
      {"measurement": "Residual activity (%)", "setting": "[1]; pH 9, Overnight/ RT", "result": 25.0, "unit": "%"},
      {"measurement": "Residual activity (%)", "setting": "[1]; pH 10, Overnight/ RT", "result": 12.5, "unit": "%"},
      {"measurement": "Residual activity (%)", "setting": "[2]; DTT 0 mM", "result": 100.0, "unit": "%"},
      {"measurement": "Residual activity (%)", "setting": "[2]; DTT 50 mM", "result": 125.0, "unit": "%"},
      {"measurement": "Residual activity (%)", "setting": "[2]; DTT 100 mM", "result": 143.7, "unit": "%"},
      {"measurement": "Residual activity (%)", "setting": "[2]; DTT 150 mM", "result": 143.7, "unit": "%"},
      {"measurement": "Antimicrobial activity after incubation with proteolytic enzyme", "setting": "trypsin", "result": "no reduction in activity"},
      {"measurement": "Antimicrobial activity after incubation with proteolytic enzyme", "setting": "proteinase K", "result": "no reduction in activity"},
      {"measurement": "Antimicrobial activity after incubation with H2O2", "setting": "[3]", "result": "did not show any antimicrobial activity"},
      {"measurement": "Antimicrobial activity during storage", "setting": "[4]; purified peptide stored at room temperature, within 24 h", "result": "significant reduction in antimicrobial activity"},
      {"measurement": "Antimicrobial activity during storage", "setting": "[4]; purified peptide stored at −20°C", "result": "stable"},
      {"measurement": "MIC", "setting": "M. luteus", "result": 6.3, "unit": "µM"},
      {"measurement": "Antimicrobial activity upon treatment with amylase", "setting": "amylase", "result": "Stable activity"}
    ]},
    {"compound": "pediocin PA-1: well-studied 4.6 kDa class IIa antimicrobial peptide (bacteriocin) from Pediococcus sp. (KYYGNGVTCGKHSCSVDWGKATTCIINNGAMAWATGGHQGNHKC; ends and bridges not checked; cysteine pairing not given here; UniProt P29430 19-62, looked up)", "values": [
      {"measurement": "Effect of proteases on activity", "setting": "[5]", "result": "inactivated"}
    ]}
  ]
}
